Source: US20100179192A1, “USE OF NITRIC OXIDE RELEASING COMPOUNDS IN THE TREATMENT OF CHRONIC PAIN” (NICOX S.A., priority 2007, published 2010)

Tested on: hyperalgesic responses following chronic constriction injuries of the rat sciatic nerve
Assay: Chronic constriction injury (CCI)-induced mechanical hyperalgesia in rats (modified Randall-Selitto method)
Assay type: in vivo
Settings: for Contra-PWT30 min (paw withdrawal threshold, contralateral unlesioned paw) / Ipsi-PWT30 min (paw withdrawal threshold, CCI-lesioned ipsilateral paw) / PWT30 min: 30 min after treatment; for Contra-PWT30 min (paw withdrawal threshold, contralateral unlesioned paw) / Ipsi-PWT30 min (paw withdrawal threshold, CCI-lesioned ipsilateral paw): cut-off 240 g; for Ipsi-PWT30 min (paw withdrawal threshold, CCI-lesioned ipsilateral paw): 7 days after sciatic nerve ligation; for PWT30 min / PWT60 min: Table II, 175 μmol/kg sc each agent, alone or in combination; for PWT60 min: 60 min after treatment
Experimental: The efficacy of nitrooxyderivatives of antioxidant compounds of formula (I) in the treatment of neuropathic pain was evaluated in the model of hyperalgesic responses following chronic constriction injuries of the rat sciatic nerve. The pharmacological activity of the compounds of formula (I) was compared to that of the known analgesic drugs. The parent not-derivatized antioxidant drug was used as reference. The efficacy of the equimolar combination of compounds of formula (I) and analgesic drugs selected between the group of gabapentin, tiagabine and pregabalin was also evaluated, on the same experimental model.
The method described by Bennet and Xie (1988) was generally followed. Rats were anesthetized with chloral hydrate (380 mg/kg ip, Sigma). The right common sciatic nerve was exposed at the level of the middle of the high by blunt dissection through the biceps femoris. Proximal to the sciatic's trifurcation, about 12 mm of nerve was freed of adhering tissue and four ligatures (3/0 silk suture) were tied loosely around it with about 1 mm spacings. Ligatures were tied such that the diameter of the nerve was only barely constricted. […] The incision was closed in layers. The experiments were then carried out 1 week after surgery. Mechanical hyperalgesia was determined with an analgesimeter (Ugo Basile, Italy), using the modified Randall-Selitto method. Briefly, a conical stylus with a hemispherical tip was places upon the middle of hind paw dorsum. The animal was gently restrained and calibrated pressure of gradually increasing intensity was applied until the rat withdrew the hindpaw. Threshold pressure (g) of both hindpaws was determined every 15 minutes, with two measurements before the treatments (pretest), and from 15 to 60 minutes after treatment. An arbitrary cut-off value of 240 g was adopted.

Row | SMILES | Contra-PWT30 min (paw withdrawal threshold, contralateral unlesioned paw) (175 μmol/kg sc) [g] | sedative effect (175 μmol/kg sc, observed in CCI experiment) | Ipsi-PWT30 min (paw withdrawal threshold, CCI-lesioned ipsilateral paw) (175 μmol/kg sc) [g] | PWT30 min [g] | PWT60 min [g]
1 | COc1cc(/C=C/C(=O)OCCCCO[N+](=O)[O-])ccc1O [Ferulic acid 4-(nitrooxy)butyl ester, Ferulic Acid 4-(nitrooxy)butyl ester] | 98.5 ± 4.8 | did not induce any appreciable sedative effect | 76.3 ± 4.8 | 76.3 ± 4.8 | 37.5 ± 5.9
2 | COc1cc(/C=C/C(=O)O)ccc1O [Ferulic acid] | 71.4 ± 11.1 |  | 37.9 ± 15.5 |  | 
3 | NCC1(CC(=O)O)CCCCC1 [Gabapentin] | 84.3 ± 3.9 |  | 75.1 ± 9.8 | 75.1 ± 9.8 | 37.6 ± 7.0
